Assay results published in ChEMBL document CHEMBL1131734, “Synthesis of polyamine derivatives for the preparation of affinity chromatography columns for the search of new Trypanosoma cruzi targets” (Bioorg Med Chem Lett, 1999).

How the values were obtained:
Trypanosoma cruzi [1] = test: Inhibitory activity against Trypanosoma cruzi trypomastigotes; assay type: functional, organism-based
Trypanothione reductase = Trypanothione reductase (Trypanosoma cruzi, UniProt P28593); test: Inhibitory activity against trypanothione reductase in Trypanosoma cruzi trypomastigotes; NA is not active
Chain of Trypanothione reductase (P28593 whole entry): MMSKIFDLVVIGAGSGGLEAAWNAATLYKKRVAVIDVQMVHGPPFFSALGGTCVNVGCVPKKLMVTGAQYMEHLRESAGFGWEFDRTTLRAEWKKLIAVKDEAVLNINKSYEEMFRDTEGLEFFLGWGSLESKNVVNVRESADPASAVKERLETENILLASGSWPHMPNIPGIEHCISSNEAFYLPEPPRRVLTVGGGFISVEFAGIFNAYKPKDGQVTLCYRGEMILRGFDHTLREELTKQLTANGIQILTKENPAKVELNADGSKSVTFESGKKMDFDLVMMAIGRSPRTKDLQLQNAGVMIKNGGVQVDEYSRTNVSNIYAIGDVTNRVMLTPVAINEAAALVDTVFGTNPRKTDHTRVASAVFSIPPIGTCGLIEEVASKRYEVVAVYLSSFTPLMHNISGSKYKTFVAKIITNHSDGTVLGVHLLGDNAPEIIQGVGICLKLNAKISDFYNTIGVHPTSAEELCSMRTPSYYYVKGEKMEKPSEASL

Trypanosoma cruzi [2] = test: Inhibitory activity against Trypanosoma cruzi trypomastigotes at concentration 12.5 uM; assay type: functional

SMILES	IC50 (Trypanosoma cruzi [1]) [µM]	IC50 (Trypanothione reductase)	inhibition at 12.5 µM (Trypanosoma cruzi [2]) [%]
NCCCCC(N)C(=O)NCC1CCC(CNCCCN2CCN(CCCNCC3CCC(CNC(=O)C(N)CCCCN)CC3)CC2)CC1 (centres undefined)	5	Not Active	–
CC(C)(C)OC(=O)NCCCCC(NC(=O)OC(C)(C)C)C(=O)NCC1CCC(CNCCCN2CCN(CCCNCC3CCCCC3)CC2)CC1 (centres undefined)	5	Not Active	–
NCCCN1CCN(CCCN2C(=O)c3ccccc3C2=O)CC1	5	Not Active	–
C1CCC(CNCCCN2CCN(CCCNCC3CCCCC3)CC2)CC1	5	Not Active	90
NCCCN1CCN(CCCNCC2CCCCC2)CC1	5	Not Active	–
CC(C)(C)OC(=O)NCCCCC(NC(=O)OC(C)(C)C)C(=O)NCC1CCC(CNCCCN2CCN(CCCNCC3CCC(CNC(=O)C(CCCCNC(=O)OC(C)(C)C)NC(=O)OC(C)(C)C)CC3)CC2)CC1 (centres undefined)	5	Not Active	–
O=C1c2ccccc2C(=O)N1CCCN1CCN(CCCNCC2CCCCC2)CC1	5	Not Active	–
NCCCCC(N)C(=O)NCC1CCC(CNCCCN2CCN(CCCNCC3CCCCC3)CC2)CC1 (centres undefined)	5	Not Active	–
NCCCN1CCN(CCCN)CC1	5	Not Active	–
